In ChEMBL document CHEMBL4507275, “Data for DCP probe BI-2545” (2021):

Assays:
[1] = molecular target: Serine/threonine-protein kinase NIM1 (Homo sapiens) (UniProt Q8IY84); conditions: Compound concentration 1000.0 nM
[2] = molecular target: Ankyrin repeat and protein kinase domain-containing protein 1 (Homo sapiens) (UniProt Q8NFD2); conditions: Compound concentration 1000.0 nM
[3] = molecular target: Protein-tyrosine kinase 6 (Homo sapiens) (UniProt Q13882); conditions: Compound concentration 1000.0 nM
[4] = system: Receptor-type tyrosine-protein kinase FLT3 (Homo sapiens), P36888 [D835V]; conditions: Compound concentration 1000.0 nM
[5] = molecular target: Phosphatidylinositol 4,5-bisphosphate 3-kinase catalytic subunit delta isoform (Homo sapiens) (UniProt O00329); conditions: Compound concentration 1000.0 nM
[6] = molecular target: Serine/threonine-protein kinase SIK2 (Homo sapiens) (UniProt Q9H0K1); conditions: Compound concentration 1000.0 nM
[7] = molecular target: Muscarinic acetylcholine receptor M4 (Homo sapiens) (UniProt P08173); conditions: Compound concentration 10.0 uM
[8] = molecular target: Epithelial discoidin domain-containing receptor 1 (Homo sapiens) (UniProt Q08345); conditions: Compound concentration 1000.0 nM
[9] = molecular target: Phosphatidylinositol 3-kinase catalytic subunit type 3 (Homo sapiens) (UniProt Q8NEB9); conditions: Compound concentration 1000.0 nM
[10] = molecular target: Serine/threonine-protein kinase WNK3 (Homo sapiens) (UniProt Q9BYP7); conditions: Compound concentration 1000.0 nM
[11] = molecular target: 5-hydroxytryptamine receptor 2B (Homo sapiens) (UniProt P41595); conditions: Compound concentration 10.0 uM
[12] = molecular target: Transient receptor potential cation channel subfamily M member 6 (Homo sapiens) (UniProt Q9BX84); conditions: Compound concentration 1000.0 nM
[13] = molecular target: NT-3 growth factor receptor (Homo sapiens) (UniProt Q16288); conditions: Compound concentration 1000.0 nM
[14] = molecular target: Receptor tyrosine-protein kinase erbB-3 (Homo sapiens) (UniProt P21860); conditions: Compound concentration 1000.0 nM
[15] = system: Receptor-type tyrosine-protein kinase FLT3 (Homo sapiens), P36888 [D835H]; conditions: Compound concentration 1000.0 nM
[16] = molecular target: TRAF2 and NCK-interacting protein kinase (Homo sapiens) (UniProt Q9UKE5); conditions: Compound concentration 1000.0 nM
[17] = molecular target: Activated CDC42 kinase 1 (Homo sapiens) (UniProt Q07912); conditions: Compound concentration 1000.0 nM
[18] = molecular target: Myosin-IIIa (Homo sapiens) (UniProt Q8NEV4); conditions: Compound concentration 1000.0 nM
[19] = molecular target: 5'-AMP-activated protein kinase catalytic subunit alpha-2 (Homo sapiens) (UniProt P54646); conditions: Compound concentration 1000.0 nM
[20] = molecular target: Dual specificity protein kinase TTK (Homo sapiens) (UniProt P33981); conditions: Compound concentration 1000.0 nM
[21] = molecular target: Eukaryotic translation initiation factor 2-alpha kinase 1 (Homo sapiens) (UniProt Q9BQI3); conditions: Compound concentration 1000.0 nM
[22] = system: Proto-oncogene tyrosine-protein kinase receptor Ret (Homo sapiens), P07949 [M918T]; conditions: Compound concentration 1000.0 nM
[23] = molecular target: Alpha-1B adrenergic receptor (Homo sapiens) (UniProt P35368); conditions: Compound concentration 10.0 uM
[24] = molecular target: Mitogen-activated protein kinase kinase kinase 20 (Homo sapiens) (UniProt Q9NYL2); conditions: Compound concentration 1000.0 nM
[25] = molecular target: Kappa-type opioid receptor (Homo sapiens) (UniProt P41145); conditions: Compound concentration 10.0 uM
[26] = molecular target: cAMP-dependent protein kinase catalytic subunit alpha (Homo sapiens) (UniProt P17612); conditions: Compound concentration 1000.0 nM
[27] = system: Receptor-type tyrosine-protein kinase FLT3 (Homo sapiens), P36888 [UNDEFINED MUTATION]; conditions: Compound concentration 1000.0 nM
[28] = molecular target: MAP kinase-activated protein kinase 5 (Homo sapiens) (UniProt Q8IW41); conditions: Compound concentration 1000.0 nM
[29] = molecular target: Tyrosine-protein kinase Fer (Homo sapiens) (UniProt P16591); conditions: Compound concentration 1000.0 nM
[30] = molecular target: Interleukin-1 receptor-associated kinase 3 (Homo sapiens) (UniProt Q9Y616); conditions: Compound concentration 1000.0 nM
[31] = molecular target: Hormonally up-regulated neu tumor-associated kinase (Homo sapiens) (UniProt P57058); conditions: Compound concentration 1000.0 nM
[32] = molecular target: Activin receptor type-1-like (Homo sapiens) (UniProt P37023); conditions: Compound concentration 1000.0 nM
[33] = molecular target: Casein kinase I isoform gamma-1 (Homo sapiens) (UniProt Q9HCP0); conditions: Compound concentration 1000.0 nM
[34] = molecular target: Peripheral plasma membrane protein CASK (Homo sapiens) (UniProt O14936); conditions: Compound concentration 1000.0 nM
[35] = molecular target: Myosin light chain kinase 2, skeletal/cardiac muscle (Homo sapiens) (UniProt Q9H1R3); conditions: Compound concentration 1000.0 nM
[36] = molecular target: Mu-type opioid receptor (Homo sapiens) (UniProt P35372); conditions: Compound concentration 10.0 uM
[37] = molecular target: Ribosomal protein S6 kinase alpha-1 (Homo sapiens) (UniProt Q15418); conditions: Compound concentration 1000.0 nM
[38] = molecular target: Tyrosine-protein kinase ABL1 (Homo sapiens) (UniProt P00519); conditions: Compound concentration 1000.0 nM
[39] = system: Tyrosine-protein kinase ABL1 (Homo sapiens), P00519 [Q252H]; conditions: Compound concentration 1000.0 nM
[40] = molecular target: Ribosomal protein S6 kinase alpha-4 (Homo sapiens) (UniProt O75676); conditions: Compound concentration 1000.0 nM
[41] = molecular target: Serine/threonine-protein kinase Nek4 (Homo sapiens) (UniProt P51957); conditions: Compound concentration 1000.0 nM
[42] = molecular target: Cyclin-dependent kinase 18 (Homo sapiens) (UniProt Q07002); conditions: Compound concentration 1000.0 nM
[43] = molecular target: Serine/threonine-protein kinase Sgk3 (Homo sapiens) (UniProt Q96BR1); conditions: Compound concentration 1000.0 nM
[44] = molecular target: Tyrosine-protein kinase Yes (Homo sapiens) (UniProt P07947); conditions: Compound concentration 1000.0 nM
[45] = molecular target: Atypical kinase COQ8B, mitochondrial (Homo sapiens) (UniProt Q96D53); conditions: Compound concentration 1000.0 nM

Chain of TRAF2 and NCK-interacting protein kinase (Homo sapiens) (Q9UKE5 whole entry, looked up): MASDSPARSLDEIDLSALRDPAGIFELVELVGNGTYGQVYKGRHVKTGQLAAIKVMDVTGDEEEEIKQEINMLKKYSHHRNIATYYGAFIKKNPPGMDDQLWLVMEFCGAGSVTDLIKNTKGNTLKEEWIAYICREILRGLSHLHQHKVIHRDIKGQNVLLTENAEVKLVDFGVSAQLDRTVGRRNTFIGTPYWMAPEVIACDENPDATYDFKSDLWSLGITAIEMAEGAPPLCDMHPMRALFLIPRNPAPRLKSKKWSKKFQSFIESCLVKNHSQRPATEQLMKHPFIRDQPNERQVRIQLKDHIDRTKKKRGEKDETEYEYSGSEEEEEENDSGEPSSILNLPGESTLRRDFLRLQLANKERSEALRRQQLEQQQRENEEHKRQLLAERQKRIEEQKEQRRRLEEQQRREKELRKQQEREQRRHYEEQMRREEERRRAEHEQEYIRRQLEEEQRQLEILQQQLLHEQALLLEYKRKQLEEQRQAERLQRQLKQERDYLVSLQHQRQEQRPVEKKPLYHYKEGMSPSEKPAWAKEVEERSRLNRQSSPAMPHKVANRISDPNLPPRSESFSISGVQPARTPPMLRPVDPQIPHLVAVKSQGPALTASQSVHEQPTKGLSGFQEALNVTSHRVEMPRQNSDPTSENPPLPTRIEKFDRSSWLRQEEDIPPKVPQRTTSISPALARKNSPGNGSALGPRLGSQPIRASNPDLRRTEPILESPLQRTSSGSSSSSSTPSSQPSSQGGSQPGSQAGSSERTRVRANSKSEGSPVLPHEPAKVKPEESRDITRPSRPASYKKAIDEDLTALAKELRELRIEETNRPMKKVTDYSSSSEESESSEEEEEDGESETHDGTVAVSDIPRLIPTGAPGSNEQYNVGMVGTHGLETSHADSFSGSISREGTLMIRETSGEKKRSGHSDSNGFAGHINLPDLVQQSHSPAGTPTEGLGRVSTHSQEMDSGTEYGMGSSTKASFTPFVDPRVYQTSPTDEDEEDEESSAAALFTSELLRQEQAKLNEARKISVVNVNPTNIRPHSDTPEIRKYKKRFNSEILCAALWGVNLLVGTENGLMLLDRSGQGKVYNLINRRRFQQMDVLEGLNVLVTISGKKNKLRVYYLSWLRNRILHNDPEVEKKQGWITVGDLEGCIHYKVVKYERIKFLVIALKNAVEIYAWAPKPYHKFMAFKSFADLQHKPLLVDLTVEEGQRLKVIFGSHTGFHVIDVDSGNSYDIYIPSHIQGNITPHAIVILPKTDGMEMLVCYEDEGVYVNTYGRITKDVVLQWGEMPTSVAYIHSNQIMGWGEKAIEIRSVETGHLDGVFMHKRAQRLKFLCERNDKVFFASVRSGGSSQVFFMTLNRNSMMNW
Chain of Transient receptor potential cation channel subfamily M member 6 (Homo sapiens) (Q9BX84 whole entry): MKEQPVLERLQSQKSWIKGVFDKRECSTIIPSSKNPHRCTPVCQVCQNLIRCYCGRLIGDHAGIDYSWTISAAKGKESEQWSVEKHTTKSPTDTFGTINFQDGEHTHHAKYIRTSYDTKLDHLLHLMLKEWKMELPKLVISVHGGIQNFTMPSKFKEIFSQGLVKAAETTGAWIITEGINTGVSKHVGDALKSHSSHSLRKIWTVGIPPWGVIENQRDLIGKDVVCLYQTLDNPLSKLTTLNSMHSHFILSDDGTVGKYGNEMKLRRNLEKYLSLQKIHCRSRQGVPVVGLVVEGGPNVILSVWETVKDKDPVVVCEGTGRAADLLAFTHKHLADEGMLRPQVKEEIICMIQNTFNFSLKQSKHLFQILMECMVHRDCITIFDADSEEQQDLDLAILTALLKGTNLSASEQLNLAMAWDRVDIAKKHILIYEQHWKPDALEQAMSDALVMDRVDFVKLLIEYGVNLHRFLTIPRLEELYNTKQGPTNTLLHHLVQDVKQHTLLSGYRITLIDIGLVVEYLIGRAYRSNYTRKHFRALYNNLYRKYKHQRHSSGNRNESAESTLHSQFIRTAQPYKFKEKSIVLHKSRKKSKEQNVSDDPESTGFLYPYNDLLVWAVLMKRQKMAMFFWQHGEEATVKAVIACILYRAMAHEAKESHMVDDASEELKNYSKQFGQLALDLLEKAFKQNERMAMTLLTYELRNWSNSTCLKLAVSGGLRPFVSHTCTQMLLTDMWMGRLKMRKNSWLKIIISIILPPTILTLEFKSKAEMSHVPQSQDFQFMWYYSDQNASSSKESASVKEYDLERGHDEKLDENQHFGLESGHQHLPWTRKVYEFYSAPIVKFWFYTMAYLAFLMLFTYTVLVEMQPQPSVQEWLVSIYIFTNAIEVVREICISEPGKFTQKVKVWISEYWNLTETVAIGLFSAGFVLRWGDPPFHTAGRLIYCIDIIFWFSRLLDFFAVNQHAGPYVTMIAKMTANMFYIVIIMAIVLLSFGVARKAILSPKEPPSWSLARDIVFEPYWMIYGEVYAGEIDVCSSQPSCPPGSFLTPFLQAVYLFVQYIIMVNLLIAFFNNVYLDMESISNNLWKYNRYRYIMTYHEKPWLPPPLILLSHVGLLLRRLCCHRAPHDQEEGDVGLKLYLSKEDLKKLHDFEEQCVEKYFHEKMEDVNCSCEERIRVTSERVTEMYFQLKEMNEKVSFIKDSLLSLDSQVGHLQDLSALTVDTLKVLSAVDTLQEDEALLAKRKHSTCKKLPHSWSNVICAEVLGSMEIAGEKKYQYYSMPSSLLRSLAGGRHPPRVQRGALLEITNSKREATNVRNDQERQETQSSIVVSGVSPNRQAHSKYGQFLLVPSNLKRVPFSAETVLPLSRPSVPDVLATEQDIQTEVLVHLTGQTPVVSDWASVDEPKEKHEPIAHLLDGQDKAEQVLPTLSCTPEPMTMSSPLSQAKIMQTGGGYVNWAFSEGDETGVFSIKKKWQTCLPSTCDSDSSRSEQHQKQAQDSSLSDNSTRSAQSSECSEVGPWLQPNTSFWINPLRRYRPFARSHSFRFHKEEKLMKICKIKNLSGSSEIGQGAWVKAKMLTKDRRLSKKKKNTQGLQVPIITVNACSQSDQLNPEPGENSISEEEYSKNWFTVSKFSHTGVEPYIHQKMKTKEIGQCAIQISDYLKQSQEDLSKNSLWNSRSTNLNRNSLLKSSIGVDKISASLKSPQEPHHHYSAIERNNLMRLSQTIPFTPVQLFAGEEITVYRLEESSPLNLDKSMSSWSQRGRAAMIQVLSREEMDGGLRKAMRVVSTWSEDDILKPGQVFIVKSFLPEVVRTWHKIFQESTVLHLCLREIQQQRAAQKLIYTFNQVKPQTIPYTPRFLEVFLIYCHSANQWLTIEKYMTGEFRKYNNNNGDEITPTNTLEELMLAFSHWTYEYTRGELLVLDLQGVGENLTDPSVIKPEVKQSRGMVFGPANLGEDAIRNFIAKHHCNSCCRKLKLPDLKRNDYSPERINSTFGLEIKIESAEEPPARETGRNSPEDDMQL
Chain of Protein-tyrosine kinase 6 (Homo sapiens) (Q13882 whole entry, looked up): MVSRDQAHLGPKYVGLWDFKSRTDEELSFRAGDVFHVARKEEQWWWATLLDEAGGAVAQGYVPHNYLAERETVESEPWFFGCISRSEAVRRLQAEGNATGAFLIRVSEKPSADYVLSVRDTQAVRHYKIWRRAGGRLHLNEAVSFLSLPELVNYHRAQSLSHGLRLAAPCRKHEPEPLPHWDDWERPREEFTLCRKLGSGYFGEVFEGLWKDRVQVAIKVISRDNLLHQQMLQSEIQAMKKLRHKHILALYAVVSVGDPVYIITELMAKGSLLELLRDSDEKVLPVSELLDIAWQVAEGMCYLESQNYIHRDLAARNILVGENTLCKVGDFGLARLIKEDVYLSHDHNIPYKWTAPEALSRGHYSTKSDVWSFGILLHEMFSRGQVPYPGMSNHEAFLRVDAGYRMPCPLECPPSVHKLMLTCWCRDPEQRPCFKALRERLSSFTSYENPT
Chain of Interleukin-1 receptor-associated kinase 3 (Homo sapiens) (Q9Y616 whole entry): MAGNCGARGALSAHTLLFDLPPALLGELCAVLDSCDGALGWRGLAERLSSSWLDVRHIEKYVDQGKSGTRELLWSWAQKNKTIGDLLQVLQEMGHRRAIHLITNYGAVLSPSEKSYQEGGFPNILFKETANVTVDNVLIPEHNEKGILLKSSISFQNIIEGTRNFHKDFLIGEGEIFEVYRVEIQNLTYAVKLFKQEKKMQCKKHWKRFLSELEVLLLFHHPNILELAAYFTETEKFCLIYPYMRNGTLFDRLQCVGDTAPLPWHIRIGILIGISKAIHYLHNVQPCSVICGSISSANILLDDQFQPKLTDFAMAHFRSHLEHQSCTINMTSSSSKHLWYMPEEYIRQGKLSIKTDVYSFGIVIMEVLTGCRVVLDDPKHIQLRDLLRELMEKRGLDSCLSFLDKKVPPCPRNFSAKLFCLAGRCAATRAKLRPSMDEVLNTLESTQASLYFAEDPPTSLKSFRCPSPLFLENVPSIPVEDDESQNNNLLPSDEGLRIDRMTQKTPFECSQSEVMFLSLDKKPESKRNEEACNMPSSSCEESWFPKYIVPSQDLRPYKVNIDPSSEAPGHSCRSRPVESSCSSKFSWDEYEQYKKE
Chain of Serine/threonine-protein kinase NIM1 (Homo sapiens) (Q8IY84 whole entry, the tested form may be a part): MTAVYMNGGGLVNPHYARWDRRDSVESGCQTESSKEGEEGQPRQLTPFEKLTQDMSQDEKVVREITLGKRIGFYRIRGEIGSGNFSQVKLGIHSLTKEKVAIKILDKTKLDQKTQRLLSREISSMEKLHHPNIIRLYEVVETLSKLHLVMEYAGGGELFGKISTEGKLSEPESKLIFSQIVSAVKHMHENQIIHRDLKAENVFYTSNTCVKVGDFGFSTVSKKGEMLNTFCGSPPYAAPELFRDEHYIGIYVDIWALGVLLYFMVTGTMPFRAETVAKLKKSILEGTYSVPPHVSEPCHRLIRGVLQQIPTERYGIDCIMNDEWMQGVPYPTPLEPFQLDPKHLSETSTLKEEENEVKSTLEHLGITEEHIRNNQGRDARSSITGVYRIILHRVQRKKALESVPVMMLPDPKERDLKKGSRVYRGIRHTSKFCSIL

O=C(NC[C@@H]1[C@H]2CN(C(=O)OCc3cc(C(F)(F)F)cc(C(F)(F)F)c3)C[C@@H]12)c1ccc2[nH]nnc2c1 [BI 2545]
inactive: residual activity [1] 100% | residual activity [2] 73% | residual activity [3] 96% | residual activity [4] 100% | residual activity [5] 75% | residual activity [6] 100% | inhibition [7] 14.2% | residual activity [8] 83% | residual activity [9] 72% | residual activity [10] 100% | inhibition [11] 45.9% | residual activity [12] 92% | residual activity [13] 91% | residual activity [14] 96% | residual activity [15] 100% | residual activity [16] 98% | residual activity [17] 100% | residual activity [18] 98% | residual activity [19] 100% | residual activity [20] 91% | residual activity [21] 91% | residual activity [22] 100% | inhibition [23] 33.4% | residual activity [24] 86% | inhibition [25] 27.8% | residual activity [26] 100% | residual activity [27] 88% | residual activity [28] 86% | residual activity [29] 97% | residual activity [30] 84% | residual activity [31] 100% | residual activity [32] 100% | residual activity [33] 97% | residual activity [34] 70% | residual activity [35] 97% | inhibition [36] 43% | residual activity [37] 94% | residual activity [38] 100% | residual activity [39] 78% | residual activity [40] 100% | residual activity [41] 84% | residual activity [42] 100% | residual activity [43] 84% | residual activity [44] 100% | residual activity [45] 94%

Cc1nccc(COC(=O)N2C[C@@H]3[C@@H](CNC(=O)c4ccc5[nH]nnc5c4)[C@@H]3C2)n1 [BI 3017]
inactive: residual activity [1] 87% | residual activity [2] 100% | residual activity [3] 100% | residual activity [4] 79% | residual activity [5] 85% | residual activity [6] 92% | inhibition [7] 16.1% | residual activity [8] 100% | residual activity [9] 94% | residual activity [10] 91% | inhibition [11] 27.1% | residual activity [12] 85% | residual activity [13] 90% | residual activity [14] 59% | residual activity [15] 97% | residual activity [16] 100% | residual activity [17] 100% | residual activity [18] 99% | residual activity [19] 97% | residual activity [20] 89% | residual activity [21] 100% | residual activity [22] 100% | inhibition [23] 30.2% | residual activity [24] 90% | inhibition [25] 9.47% | residual activity [26] 88% | residual activity [27] 79% | residual activity [28] 97% | residual activity [29] 100% | residual activity [30] 100% | residual activity [31] 81% | residual activity [32] 100% | residual activity [33] 100% | residual activity [34] 72% | residual activity [35] 90% | inhibition [36] 12.1% | residual activity [37] 98% | residual activity [38] 95% | residual activity [39] 100% | residual activity [40] 100% | residual activity [41] 79% | residual activity [42] 100% | residual activity [43] 100% | residual activity [44] 100% | residual activity [45] 100%
